Patent US20260000496A1, “MATERIALS AND METHODS FOR DRUG-INDUCED GINGIVAL OVERGROWTH” (Optimed Technology, Inc., priority 2019, published 2026)

What was measured:
[1] = Folic acid release from PLG(A) microspheres in methylcellulose gel; format: physicochemical
Experimental: Folic acid was encapsulated in polylactic-colycolide (PLG) microspheres that were visualized using scanning electron microscopy (SEM) (A). These microspheres were embedded within a methylcellulose gel to enable oral applications and visualized using SEM (B). Controlled release of folic acid of a protracted time course was examined using spectroscopy and cumulative release was calculated (C).
In order to deliver the Folic acid treatment, a controlled release system with polylactic glycolic acid (PLGA) and methylcellulose gel were used (FIG. 36). Release kinetics of folic acid increased over time and noted to continue until day 21. The amount of the released Folic acid was approximate 400 μg/ml on day 1 and reached 800 μg/ml on day 21 due to bulk deterioration of polymer.
Microsphere Fabrication. The folic acid was encapsulated in poly (lactide-co-glycolide) (PLG) (8515DLG7E, Lakeshore Biomaterials, Birmingham, AL, USA) microspheres using double emulsion solvent evaporation method. Briefly, a 100 μL quantity of proteins dissolved in molecular-grade water was pipetted into 1 mL of 5% PLG in ethyl acetate (Sigma-Aldrich Corp., St. Louis, MO, USA) and sonicated (Sonics and Materials Inc., Newtown, CT, USA) on 50% magnitude for 1 min. A second emulsion composed of 1% […] (PVA) (Sigma-Aldrich) and 7% ethyl acetate was then added and vortexed for 15 sec. The solution was then added to a 1% PVA solution with continuous stirring for 3 hrs at room temperature and filtered through a 0.2-μm filter (Nalgene, ThermoFisher Scientific, Rockville, MD, USA), collected by centrifugation at 2,000 rpm for 10 min (Eppendorf, Hamburg, Germany), freeze-dried for 16 hrs (Labconco, Kansas City, MO, USA), and stored at −20° C. The microspheres fabricated with this technique were between 2 and 200 microns.
Gel preparation and folic acid release study. Folic acid (100 μg/ml) (Sigma-Aldrich, St Louis, MO) was encapsulated in PLG microspheres as described above. The resulting lyophilized powder was formulated into an oral gel containing 20 mg of folic acid microspheres mixed with 5% of methylcellulose (Sigma-Aldrich, St Louis, MO) in 330 μl of phosphate buffer saline. The gels were prepared fresh daily before applications and repeated until end of the study period (14 days).

[2] = test system: Human TNF-α promoter; assay: TNF-α promoter luciferase reporter assay in oral keratinocytes; format: cell-based; conditions: full length promoter and deletion constructs; CSA, LPS & Folic acid each 10 μg/ml; p<0.05
Experimental: Reporter assay. The TNF-α promoter deletion constructs, Δ−1220 (−1220 to +65) and Δ−450 (−450 to +65) were synthesized from SwitchGear Genomics (USA) for the luciferase reporter assay. The human TNF-α promoter constructs or an empty pLightSwitch promoter reporter vector as a control was transfected in to NOKSI using the FuGene reagent (SwitchGear Genomics, USA). Cells were seeded with a density of 5×10^3 per well of 96-well plate. GoClone reporter constructs and transfection reagents were mixed with optimum combination and incubated for 30 minutes. The media were changed to the seeded cells and reaction mixture were gently dripped onto the seeded cells, shaked the plate gently and incubated for next 24 hours. The LightSwitch assay reagents were added to the transfected plates and incubated for 30 minutes at room temperature. Luciferase activity were measured with a luminometer (Wallac Vector3; PerkinElmer, Boston, MA).
Oral Keratinocytes cells were transfected with Full length TNF-α promoter and […] and treated with CSA (10 μg/ml) & LPS (10 μg/ml), and CSA (10 μg/ml), LPS (10 μg/ml) & Folic acid (10 μg/ml). TNF-α luciferase reporter activity were measured. (p<0.05).

[3] = test system: NF-κB (p-P65); assay: Western blot of phospho-p65 (NF-κB) in oral keratinocytes; format: cell-based, human
Experimental: Cell Culture. Normal human oral keratinocytes (NOKSI) and fibroblast (HOF) cells were maintained in Dulbecco […] Eagle's medium (Sigma-Aldrich, St. Louis, MO, USA) supplemented with 10% fetal bovine serum (Atlas Bio-logicals, Fort Collins, CO, USA) and 100 units/mL penicillin and 100 μg/mL streptomycin (LifeTechnologies, Carlsbad, CA, USA). Cells were grown in incubator at 37° C. in a humidified chamber with 5% CO2.
Drugs treatment in cell culture. The cells were treated alone or with different combination of lipopolysaccharide, cyclosporine, phenytoin, and folic acid. All of them were purchased from Sigma-Aldrich (St. Louis, MO, USA). Each of them were used from 0 μg/ml to 40 μg/ml and the optimum concentration were found 10 μg/ml.
Western blot analysis. Cells were seeded in 60 mm plates with a density of 5×10^5 cells per plate and washed briefly with Dulbecco's phosphate-buffered saline (Gibco, Waltham, MA, USA). Whole cell lysates were prepared using RIPA lysis buffer containing protease inhibitor cocktail (Sigma-Aldrich). Total protein concentration was determined using the BCA reagent (Pierce, Waltham, MA, USA). 20 μg of total protein were resolved on sodium dodecyl sulfate-polyacrylamide gel electrophoresis and transferred to polyvinylidenedifluoride membrane and immunoblotted. The blots were incubated for 1 h in 1% bovine serum albumin (BSA) (Sigma-Aldrich) to block the non-specific bindings followed by over-night incubation in primary antibodies (MyD88 and pP65 from Cell Signaling Technology, and human LITAF ThermoFisher Sigma) at 4° C. on shaker. Next day, blots were washed for three times (10 min each) in Tris-buffered saline containing 1% Tween20 (TBST) followed by incubation with secondary antibody (Goat anti-rabbit IgG HRP) with 1:10,000 dilution for 1 h. Following washes, bands were visualized using gel documentation Imaging Systems (BioRad). The band intensities were quantified using software ImageJ (NIH, USA) and relative protein levels were normalized by β-actin (Cell Signaling). […]

- release of folic acid from polymeric microspheres ([1]; FIG. 20): sustained release
- release of folic acid noted to continue until ([1]; controlled release system with PLGA and methylcellulose gel): 21 days
- amount of the released Folic acid ([1]; controlled release system with PLGA and methylcellulose gel, day 1): ~400 µg/mL
- amount of the released Folic acid ([1]; controlled release system with PLGA and methylcellulose gel, day 21): 800 µg/mL
- TNF-α luciferase reporter activity [2]: inhibits promoter activity of TNF-α
Structure (SMILES): Nc1nc2ncc(CNc3ccc(C(=O)N[C@@H](CCC(=O)O)C(=O)O)cc3)nc2c(=O)[nH]1 [folic acid]
- p-P65 protein level ([3]; LPS, CSA, FA each 10 μg/ml, 24 hours): inhibits CSA-induced expression
- amount of phospho-p65 (p-P65) protein ([3]; LPS, Phe, FA each 10 μg/ml, 24 hours): reduces phosphorylation of NF-κB (p-P65)
- NF-κB by western blot ([3]; normal oral keratinocyte cells, FIG. 35): downregulation
